Experimental findings from paper PMC8645336, “Benchmarking a highly selective USP30 inhibitor for enhancement of mitophagy and pexophagy” (Life Science Alliance, 2021) are described below.

For the assay, the target named is T1, USP8 (Homo sapiens, UniProt P40818).
T1 sequence (P40818 1-1118): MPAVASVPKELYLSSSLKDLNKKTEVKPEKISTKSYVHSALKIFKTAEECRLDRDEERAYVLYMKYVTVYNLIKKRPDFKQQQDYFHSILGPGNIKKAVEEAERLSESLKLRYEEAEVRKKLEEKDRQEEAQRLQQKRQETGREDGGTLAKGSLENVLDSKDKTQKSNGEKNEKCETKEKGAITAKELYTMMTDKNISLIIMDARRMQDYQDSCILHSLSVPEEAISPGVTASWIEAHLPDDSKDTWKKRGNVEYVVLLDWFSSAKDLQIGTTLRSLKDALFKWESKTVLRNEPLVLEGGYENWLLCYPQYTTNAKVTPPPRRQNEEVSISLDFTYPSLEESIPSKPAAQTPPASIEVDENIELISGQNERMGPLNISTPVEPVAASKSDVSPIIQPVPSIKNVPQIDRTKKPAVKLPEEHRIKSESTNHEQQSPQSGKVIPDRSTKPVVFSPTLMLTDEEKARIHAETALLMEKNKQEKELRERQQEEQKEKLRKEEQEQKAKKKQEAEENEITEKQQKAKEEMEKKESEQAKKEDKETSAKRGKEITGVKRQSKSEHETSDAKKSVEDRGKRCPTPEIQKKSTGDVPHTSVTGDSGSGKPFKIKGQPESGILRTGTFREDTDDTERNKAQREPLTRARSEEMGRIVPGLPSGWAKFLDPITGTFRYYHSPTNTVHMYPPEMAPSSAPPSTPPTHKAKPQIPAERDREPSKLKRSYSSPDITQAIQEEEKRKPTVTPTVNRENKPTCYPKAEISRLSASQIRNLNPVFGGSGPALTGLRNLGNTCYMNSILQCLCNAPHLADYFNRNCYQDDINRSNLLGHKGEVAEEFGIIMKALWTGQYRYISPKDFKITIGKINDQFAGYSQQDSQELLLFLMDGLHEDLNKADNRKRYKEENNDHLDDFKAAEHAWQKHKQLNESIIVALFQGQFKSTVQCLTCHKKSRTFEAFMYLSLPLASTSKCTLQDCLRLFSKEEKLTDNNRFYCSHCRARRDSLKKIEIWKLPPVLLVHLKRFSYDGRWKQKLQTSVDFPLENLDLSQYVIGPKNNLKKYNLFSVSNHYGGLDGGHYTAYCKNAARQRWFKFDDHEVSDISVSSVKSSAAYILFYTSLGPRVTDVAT
The experiment in a line: biochemical. Details: Ubiquigent DUB profiler selectivity panel, remaining enzyme activity as % of control. To be noted: read-out: % of control remaining. The method, boiled down: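 CMPD-39 selectivity was profiled at 1-100 μM across >40 DUBs. Cellular engagement used 2 h CMPD-39 pretreatment, then HA-Ub-PA probe for 10 min at 37°C, with USP30 band shift on immunoblot. TOMM20 ubiquitylation was blotted in YFP-PRKN hTERT-RPE1 cells after 1 h antimycin A/oligomycin A (1 μM each).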

On to `CC(C)(C)NS(=O)(=O)c1ccc(NC(=O)[C@H](Cc2ccccc2)NC(=O)c2ccc(F)cc2)cc1` [compound 39, CMPD-39], for which the remaining activity at 1 µM turned out to be 105%, the remaining activity at 10 µM amounted to 100% and the remaining activity at 100 µM amounted to 102%.
